# Results from US8461344B2, “Polymorph forms of (2S)-(4E)-N-methyl-5-[3-(5-isopropdxypyridin)yl]-4-penten-2-amine” (Targacept, Inc., priority 2006, dated 2013).
# Biological target: CNS nicotinic receptors
# Assay: Binding to relevant receptor sites
# Settings: free base used to prepare the salt forms, stated in words only
# Description: Receptor binding constants provide a measure of the ability of the compound to bind to half of the relevant receptor sites of certain brain cells of the patient. See, Cheng, et al., Biochem. Pharmacol. 22:3099 (1973). The (2S)-(4E)-N-methyl-5-[3-(5-isopropoxypyridin)yl]-4-penten-2-amine compound used to prepare the salt forms has extremely high affinity for the relevant receptors, with a binding affinity in the low nM range.
# Binding of the compounds to relevant receptor sites was determined in accordance with the techniques described in U.S. Pat. No. 6,953,855 to Mazurov et al. Inhibition constants (Ki values), reported in nM, were calculated from the IC50 values using the method of Cheng et al., Biochem, Pharmacol. 22:3099 (1973).
smiles,measurement,value
CN[C@@H](C)C/C=C/c1cncc(OC(C)C)c1 [(2S)-(4E)-N-methyl-5-[3-(5-isopropoxypyridin)yl]-4-penten-2-amine],binding affinity,low nM range
